In PMC2630426 (Journal of medicinal chemistry, 2008):
Read-outs that look alike come from different tables or passages of the source.

Legend:
μ opioid receptor [1] = conditions: GPI, TAPP as μ agonist, cited from earlier work
κ opioid receptor [2] = biological target: T1, κ opioid receptor (Cavia porcellus, UniProt P41144); conditions: read-out: Ki^κ, opioid receptor binding, cited from earlier work
μ opioid receptor [3] = biological target: T2, μ opioid receptor (Rattus norvegicus, UniProt P33535); conditions: cited from earlier work
T2 sequence (P33535 whole entry): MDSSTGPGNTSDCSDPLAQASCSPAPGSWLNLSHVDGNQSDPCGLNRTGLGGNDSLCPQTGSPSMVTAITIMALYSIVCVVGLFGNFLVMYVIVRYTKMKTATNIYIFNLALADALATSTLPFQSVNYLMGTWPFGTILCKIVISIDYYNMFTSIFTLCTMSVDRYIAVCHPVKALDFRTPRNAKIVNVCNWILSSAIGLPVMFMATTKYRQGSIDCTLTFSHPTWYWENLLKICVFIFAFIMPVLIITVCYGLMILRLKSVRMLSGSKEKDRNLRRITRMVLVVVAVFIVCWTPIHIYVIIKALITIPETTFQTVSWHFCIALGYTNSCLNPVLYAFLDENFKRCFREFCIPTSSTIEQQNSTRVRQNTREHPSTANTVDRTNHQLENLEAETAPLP

κ opioid receptor [4] = biological target: T1, κ opioid receptor; conditions: GPI, U50,488 as κ agonist, cited from earlier work
δ opioid receptor [5] = biological target: T3, δ opioid receptor (Mus musculus, UniProt P32300); conditions: cited from earlier work; for Ke^δ: MVD, DPDPE as δ agonist
T3 sequence (P32300 whole entry): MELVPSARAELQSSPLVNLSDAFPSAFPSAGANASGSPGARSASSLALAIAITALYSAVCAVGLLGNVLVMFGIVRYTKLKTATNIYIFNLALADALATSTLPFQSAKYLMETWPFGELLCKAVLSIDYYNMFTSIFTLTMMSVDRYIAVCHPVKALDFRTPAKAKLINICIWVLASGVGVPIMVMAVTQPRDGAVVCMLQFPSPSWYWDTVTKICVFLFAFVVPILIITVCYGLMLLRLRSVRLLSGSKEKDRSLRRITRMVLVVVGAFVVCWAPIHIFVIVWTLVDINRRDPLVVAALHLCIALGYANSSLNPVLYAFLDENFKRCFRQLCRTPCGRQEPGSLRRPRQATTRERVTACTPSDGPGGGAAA

δ opioid receptor [6] = biological target: T4, δ opioid receptor (Rattus norvegicus, UniProt P33533); conditions: ref Schiller et al. 4, cited from earlier work
T4 sequence (P33533 whole entry): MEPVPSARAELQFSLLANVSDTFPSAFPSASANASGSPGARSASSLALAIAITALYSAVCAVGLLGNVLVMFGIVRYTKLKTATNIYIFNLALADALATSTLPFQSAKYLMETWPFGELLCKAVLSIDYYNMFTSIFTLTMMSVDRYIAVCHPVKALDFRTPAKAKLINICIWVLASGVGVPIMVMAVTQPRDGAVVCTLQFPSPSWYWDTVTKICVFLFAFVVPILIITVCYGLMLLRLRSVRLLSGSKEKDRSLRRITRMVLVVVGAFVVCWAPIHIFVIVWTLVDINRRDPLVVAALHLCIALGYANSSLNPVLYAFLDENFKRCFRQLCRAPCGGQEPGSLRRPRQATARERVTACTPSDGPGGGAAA

δ opioid receptor [7] = biological target: T4, δ opioid receptor; conditions: read-out: Ki^δ; cited from earlier work
μ opioid receptor [8] = conditions: cited from earlier work; for Ki: read-out: Ki^μ
δ opioid receptor [9] = biological target: T3, δ opioid receptor; test: MVD assay, δ opioid antagonist potency; format: biochemical
μ opioid receptor [10] = biological target: T2, μ opioid receptor; test: rat brain membrane binding assay, μ opioid receptor; conditions: based on the receptor binding constants (Ki values)
κ opioid receptor [11] = biological target: T1, κ opioid receptor; test: GPI assay, κ opioid antagonist potency; format: biochemical, guinea pig
μ opioid receptor [12] = conditions: cited from earlier work
δ opioid receptor [13] = biological target: T4, δ opioid receptor; conditions: cited from earlier work
[14] = endomorphin-derived μ antagonists

T1 sequence (P41144 whole entry): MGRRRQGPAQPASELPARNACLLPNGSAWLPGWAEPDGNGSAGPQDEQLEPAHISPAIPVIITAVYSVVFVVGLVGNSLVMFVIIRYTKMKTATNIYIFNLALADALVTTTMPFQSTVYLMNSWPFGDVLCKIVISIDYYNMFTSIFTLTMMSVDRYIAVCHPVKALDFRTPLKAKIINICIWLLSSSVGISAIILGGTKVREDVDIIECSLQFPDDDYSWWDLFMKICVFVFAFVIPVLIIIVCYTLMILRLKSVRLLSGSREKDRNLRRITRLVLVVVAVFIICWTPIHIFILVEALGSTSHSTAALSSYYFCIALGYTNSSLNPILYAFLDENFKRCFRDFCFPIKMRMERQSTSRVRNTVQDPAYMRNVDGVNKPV

(2S)-Mdp-c[D-Cys-Gly-Phe(pNO2)-D-Cys]NH2 (disulfide) [compound 2]
Ke^μ (μ opioid receptor [1]; ref Schiller et al. 2): 1.48 ± 0.18 nM | Ki (κ opioid receptor [2]; ref Schiller et al. 2): 92.8 ± 5.3 nM | Ki ratio μ/δ/κ (μ opioid receptor [3]; based on Ki values, ref Schiller et al. 2): 1/2/42 | Ke^κ (κ opioid receptor [4]; ref Schiller et al. 2): 6.41 ± 0.18 nM | Ke^δ (δ opioid receptor [5]; ref Schiller et al. 2): 3.48 ± 0.28 nM

[(2S)-Mdp^1]Dyn A(1-11)-NH2 [compound 6]
Ke^μ (μ opioid receptor [1]; ref Lu et al. 3): 925 ± 94 nM | Ke^κ (κ opioid receptor [4]; ref Lu et al. 3): 3.92 ± 0.65 nM | Ke^δ (δ opioid receptor [5]; ref Lu et al. 3): 3320 ± 520 nM

(2S)-Mdp-c[D-Pen-Gly-Phe(pF)-Pen]-Phe-OH (disulfide) [compound 4]
Ke^μ (μ opioid receptor [1]; ref Schiller et al. 4): 668 ± 40 nM | Ke^κ (κ opioid receptor [4]; ref Schiller et al. 4): 4370 ± 860 nM | Ki ratio δ/μ/κ (δ opioid receptor [6]; based on Ki values): 1/175/1600 | Ke^δ (δ opioid receptor [5]; ref Schiller et al. 4): 0.785 ± 0.135 nM | Ke ratio δ/μ/κ (δ opioid receptor [5]; from Ke values of GPI and MVD assays, ref Schiller et al. 4): 1/851/5570

(2S)-Mdp-c[D-Pen-Gly-Phe(pF)-Pen]-Phe-OH (disulfide) (YCGFCF) [compound 4]
Ki (κ opioid receptor [2]; ref Schiller et al. 4): 3710 ± 400 nM | Ki (μ opioid receptor [3]; read-out: Ki^μ, opioid receptor binding, ref Schiller et al. 4): 406 ± 21 nM | Ki (δ opioid receptor [6]; read-out: Ki^δ, opioid receptor binding): 2.32 ± 0.4 nM

Dhp-c[N^ε,N^β-carbonyl-D-Lys^2,Dap^5]enkephalinamide
Ki (δ opioid receptor [7]): 273 nM | Ki (μ opioid receptor [8]): 15.5 nM

CC[C@H](C)[C@H](NC(=O)[C@H](CCCNC(=N)N)NC(=O)[C@H](CCCNC(=N)N)NC(=O)[C@H](CC(C)C)NC(=O)[C@H](Cc1ccccc1)NC(=O)CNC(=O)CNC(=O)[C@@H](C)Cc1c(C)cc(C(N)=O)cc1C)C(=O)N[C@@H](CCCNC(=N)N)C(=O)N1CCC[C@H]1C(=O)N[C@@H](CCCCN)C(N)=O [compound 5, [(2S)-Mdcp^1]Dyn A(1-11)-NH2]
Kb (δ opioid receptor [9]): 843 ± 88 nM | Ki ratio μ/δ/κ (μ opioid receptor [10]): 1/1/1 | Kb (κ opioid receptor [11]): 5.96 ± 0.8 nM

H-D-Phe-c[Cys-Tyr-D-Trp-Orn-Thr-Pen]-Thr-NH2 [CTOP]
IC50 (μ opioid receptor [8]; read-out: IC50^μ, somatostatin-derived μ opioid antagonist): 2.8 nM

[Dmt^1,D-2-Nal^4]endomorphin-1 [antanal-1]
Ki (μ opioid receptor [8]; [14]): 2.38 nM

H-Dmt-Sar-Phe-D-Nal-NH2
Ke^μ (μ opioid receptor [12]): 2.34 nM | Ke^δ (δ opioid receptor [13]): 305 nM

[Dmt^1,D-2-Nal^4]endomorphin-2 [antanal-2]
Ki (μ opioid receptor [8]; [14]): 1.52 nM
